In patent publication US9487489B2, “Halogen-substituted pyrazole derivatives as pest-control agents” (BAYER CROPSCIENCE AKTIENGESELLSCHAFT, priority 2013, dated 2016):

Key:
[1] = test system: Tick nymphs (Amblyomma hebraeum); assay: Amblyomma hebraeum test (AMBYHE), tick nymphs immersed; assay type: in vivo; details: application rate 100 ppm; immersed one minute; after 42 days
Description: A. Amblyomma hebaraeum Test (AMBYHE)
(§1) Solvent: dimethyl sulphoxide
To produce a suitable preparation of active compound, 10 mg of active compound are mixed with 0.5 ml of dimethyl sulfoxide, and the concentrate is diluted with water to the desired concentration.
Tick nymphs (Amblyomma hebraeum) are placed into perforated plastic beakers and immersed in the desired concentration for one minute. The ticks are transferred on filter paper into a Petri dish and stored in a climate-controlled cabinet.
After 42 days, the kill in % is determined. 100% means that all of the ticks have been killed; 0% means that none of the ticks have been killed.

[2] = test system: L1 larvae of the Australian sheep blowfly (Lucilia cuprina); assay: Lucilia cuprina test (LUCICU); assay type: in vivo; details: application rate 100 ppm; after 2 days
Procedure, shortened: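 About 20 L1 larvae placed in a vessel with minced horsemeat plus compound (DMSO concentrate diluted with water to the desired concentration). Kill in % scored after 2 days, 100% meaning all larvae dead.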

[3] = test system: greenhouse red spider mite (Tetranychus urticae); assay: Tetranychus urticae spray test, OP-resistant (TETRUR); assay type: in vivo; details: bean leaf discs, after 6 days
Procedure, shortened: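 Bean leaf discs carrying all stages of OP-resistant Tetranychus urticae were sprayed with compound formulated in acetone/dimethylformamide and diluted in water with 1000 ppm alkylaryl polyglycol ether emulsifier. Mortality (% efficacy, 100% = all mites killed) scored after 6 days.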

[4] = test system: adult cat fleas (Ctenocephalides felis); assay: Ctenocephalides felis in vitro contact test with adult cat fleas (T1); details: after 48 h
Procedure, shortened: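 Test compound was dissolved in acetone p.a. (9 mg per 1 ml) and diluted as needed. 250 μl was spread evenly over the inner walls and floor of a 25 ml test tube by rotating on an orbital shaker for 2 h at 30 rpm. Once the solvent evaporated, 5-10 adult Ctenocephalides felis were added. Tubes were capped with a perforated plastic lid and kept horizontal at room temperature and ambient humidity.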

[5] = test system: adult dog ticks (Rhipicephalus sanguineus); assay: Rhipicephalus sanguineus in vitro contact test with adult brown dog ticks (T2); details: after 48 h
Procedure, shortened: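 Acetone solutions coated onto test tube walls and floor, giving 5 μg/cm^2 at 900 ppm. Five to ten adult ticks held per tube in the dark at room temperature for 48 h, then heated at 45-50° C for up to 5 min; efficacy is the percentage of dead or moribund ticks unable to climb away.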

[6] = test system: green peach aphid (Myzus persicae); assay: Myzus persicae spray test (MYZUPE); assay type: in vivo; details: Chinese cabbage leaf discs, after 6 days
Procedure, shortened: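 Chinese cabbage leaf discs infested with all aphid stages sprayed with compound in acetone/DMF with alkylaryl polyglycol ether emulsifier in water. Efficacy (% aphids killed; 100% all dead, 0% none) scored after 6 days.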

[7] = test system: larvae of the red stomach worm (Haemonchus contortus); assay: Haemonchus contortus test (HAEMCO); assay type: in vivo; details: application rate 20 ppm; after 5 days
Description: T8. Haemonchus contortus-test (HAEMCO)
as §1
To produce a suitable preparation of active compound, 10 mg of active compound are mixed with 0.5 ml of dimethyl sulphoxide, and the concentrate is diluted with “Ringer solution” to the desired concentration.
Vessels containing the active compound preparation of the desired concentration are populated with about 40 larvae of the red stomach worm (Haemonchus contortus).
After 5 days, the kill in % is determined 100% means that all of the larvae have been killed; 0% means that none of the larvae have been killed.

| Structure (SMILES) | efficacy (kill in %) [1] | efficacy (kill in %) [2] | efficacy in % ([3]; application rate 100 g/ha) | efficacy (dead or moribund fleas) ([4]; application rate 1 μg/cm^2) | efficacy (dead or moribund fleas) ([4]; application rate 5 μg/cm^2) | efficacy (dead or moribund ticks) ([5]; application rate 1 μg/cm^2) | efficacy (dead or moribund ticks) ([5]; application rate 5 μg/cm^2) | efficacy in % ([6]; application rate 100 g/ha) | efficacy in % ([6]; application rate 500 g/ha) | efficacy in % ([3]; application rate 500 g/ha) | efficacy (kill in %) [7] |
| --- | --- | --- | --- | --- | --- | --- | --- | --- | --- | --- | --- |
| Cn1nc(C(F)(F)C(F)(F)F)c(C(F)(F)F)c1-n1cnc(-c2ccc(Cl)c(C(=O)NC3CC3)c2)c1 [Ib-3] | 100% | 100% | 100% | 100% | 100% | 100% | 80% | – | – | – | – |
| Cn1nc(C(F)(F)C(F)(F)F)c(C(F)(F)F)c1-n1ccc(-c2ccc(Cl)c(C(=O)NC3CC3)c2)c1 [Ia-2] | 100% | 100% | 90% | 100% | 100% | 100% | 100% | – | – | – | – |
| Cn1nc(C(F)(F)C(F)(F)F)c(C(F)(F)F)c1-n1cc(-c2ccc(Br)c(C(=O)NC3(C#N)CC3)c2)cn1 [Ic-34] | 100% | 100% | 100% | 100% | 100% | 80% | 100% | 90% | – | – | – |
| Cn1nc(C(F)(F)C(F)(F)F)c(C(F)(F)F)c1-n1cc(-c2ccc([N+](=O)[O-])c(C(=O)NC3CC3)c2)cn1 [Ic-66] | – | 100% | 100% | 100% | 100% | 100% | 100% | 90% | – | – | – |
| Cn1nc(C(F)(F)C(F)(F)F)c(C(F)(F)F)c1-n1cc(-c2ccc(F)c(C(=O)NC3CC3)c2)cn1 [Ic-37] | 100% | 100% | 100% | 100% | 100% | 100% | 100% | – | – | – | – |
| Cn1nc(C(F)(F)C(F)(F)F)c(C(F)(F)F)c1-n1cc(-c2ccc(F)c(C(=O)NC3(C#N)CC3)c2)cn1 [Ic-36] | 100% | 100% | 100% | 100% | 100% | 100% | 100% | 90% | – | – | – |
| Cn1nc(C(F)(F)C(F)(F)F)c(C(F)(F)F)c1-n1cc(-c2ccc(Cl)c(C(=O)NC3(C(N)=S)CC3)c2)cn1 [Ic-11] | 100% | 100% | 90% | 100% | 100% | 100% | 100% | 100% | – | – | – |
| Cn1nc(C(F)(F)C(F)(F)F)c(C(F)(F)F)c1-n1cc(-c2ccc(Cl)c(C(=O)NCC(F)(F)F)c2)cn1 [Ic-23] | 100% | 100% | 100% | 100% | 100% | 100% | 100% | – | – | – | – |
| Cn1nc(C(F)(F)C(F)(F)F)c(C(F)(F)F)c1-n1cc(-c2cc(Cl)c(Cl)c(C(=O)NC3CC3)c2)cn1 [Ic-94] | 100% | 100% | – | 100% | 100% | 100% | 100% | – | 100% | 100% | – |
| Cn1nc(C(F)(F)C(F)(F)F)c(C(F)(F)F)c1-n1cc(-c2cc(F)c(Cl)c(C(=O)NC3(C#N)CC3)c2)cn1 [Ic-27] | 100% | 100% | – | 100% | 100% | 100% | 100% | – | 90% | 100% | – |
| CN(C(=O)c1cc(-c2cnn(-c3c(C(F)(F)F)c(C(F)(F)C(F)(F)F)nn3C)c2)ccc1Cl)C1(C#N)CC1 [Ic-96] | – | 100% | 100% | 100% | 100% | 100% | 100% | 100% | – | – | – |
| Cn1nc(C(F)(F)C(F)(F)F)c(C(F)(F)F)c1-n1cc(-c2ccc(Cl)c(C(=O)NC3CC3F)c2)cn1 (centres unmarked) [Ic-81] | – | 100% | 100% | 100% | 100% | 100% | 100% | 90% | – | – | – |
| Cn1nc(C(F)(F)C(F)(F)F)c(C(F)(F)F)c1-n1ccc(-c2ccc(Cl)c(C(=O)NC3(C#N)CC3)c2)c1 [Ia-1] | 100% | 100% | 100% | 100% | 100% | 100% | 100% | – | – | – | – |
| CCn1nc(C(F)(F)C(F)(F)F)c(C(F)(F)F)c1-n1cc(-c2ccc(Cl)c(C(=O)NC3CC3)c2)cn1 [Ic-16] | 100% | 100% | – | 100% | 100% | 100% | 100% | – | – | – | 80% |
| Cn1nc(C(F)(F)C(F)(F)F)c(C(F)(F)F)c1-n1cc(-c2cc(F)c(Cl)c(C(=O)NC3CC3)c2)cn1 [Ic-24] | 100% | 100% | – | 100% | 100% | 100% | 100% | – | 90% | 100% | – |
| Cn1nc(C(F)(F)C(F)(F)F)c(C(F)(F)F)c1-n1cc(-c2ccc(Cl)c(C(=O)NC3(C#N)CC3)c2)cn1 [Ic-2] | 100% | 100% | 100% | 100% | 100% | 100% | 100% | 100% | – | – | – |
| Cc1ncc(-c2cnn(-c3c(C(F)(F)F)c(C(F)(F)C(F)(F)F)nn3C)c2)cc1C(=O)NC1CC1 [Ic-84] | 100% | 100% | – | 100% | 100% | 100% | 100% | – | 100% | 100% | – |
| Cn1nc(C(F)(F)C(F)(F)F)c(C(F)(F)F)c1-n1cc(-c2ccc(Cl)c(C(=O)NCC(F)F)c2)cn1 [Ic-78] | – | 100% | 100% | 100% | 100% | 100% | 100% | 90% | – | – | – |
